Assay results taken from paper PMC6257796, “Effects of Eupatilin and Jaceosidin on Cytochrome P450 Enzyme Activities in Human Liver Microsomes” (Molecules, 2010).

Key:
Type in all cases: in vitro ADME
[1] = target: T1, CYP2A6 (Homo sapiens, UniProt P11509); experiment: Cocktail probe assay in pooled human liver microsomes: coumarin 7-hydroxylation (IC50); settings: for IC50, coumarin 7-hydroxylation (CYP2A6): pooled human liver microsomes, 2.5 μM coumarin
T1 construct: pooled human liver microsomes (0.25 mg/mL); tissue BD Gentest Co. H161; host or cells: pooled human liver microsomes
T1 sequence (P11509 1-494): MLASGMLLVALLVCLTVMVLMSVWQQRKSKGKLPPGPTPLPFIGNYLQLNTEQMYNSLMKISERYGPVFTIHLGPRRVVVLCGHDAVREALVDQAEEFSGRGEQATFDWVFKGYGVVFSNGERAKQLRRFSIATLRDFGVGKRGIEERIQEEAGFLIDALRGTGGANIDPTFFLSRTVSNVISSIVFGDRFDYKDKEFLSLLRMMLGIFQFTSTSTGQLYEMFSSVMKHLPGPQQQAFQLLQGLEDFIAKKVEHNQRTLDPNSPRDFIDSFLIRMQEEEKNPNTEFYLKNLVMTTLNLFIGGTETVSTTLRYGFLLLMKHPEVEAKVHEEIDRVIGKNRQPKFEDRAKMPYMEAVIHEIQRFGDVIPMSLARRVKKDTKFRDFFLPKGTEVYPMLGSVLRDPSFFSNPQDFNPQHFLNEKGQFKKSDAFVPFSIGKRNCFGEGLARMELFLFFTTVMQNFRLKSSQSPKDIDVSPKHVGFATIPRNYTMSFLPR
Method: (§1) The inhibitory potencies (IC50 values) of eupatilin and jaceosidin were determined with CYP assays in the presence and absence of eupatilin and jaceosidin (final concentrations of 0.1−100 μM with acetonitrile concentration of less than 0.5% v/v) using pooled human liver microsomes. Phenacetin O-deethylase, coumarin 7-hydroxylase, amodiaquine N-deethylase, diclofenac hydroxylase, [S]-mephenytoin 4'-hydroxylase, bufuralol 1'-hydroxylase, and midazolam 1'-hydroxylase activities were determined as probe activities for CYP1A2, CYP2A6, CYP2C8, CYP2C9, CYP2C19, CYP2D6, and CYP3A, respectively, using cocktail incubation and tandem mass spectrometry. The incubation mixtures were prepared in a total volume of 200 μL as follows: pooled human liver microsomes (0.25 mg/mL), 1.3 mM NADPH, 3.3 mM MgCl2, 50 mM potassium phosphate buffer (pH 7.4), and a cocktail of probe substrates and various concentrations of eupatilin or jaceosidin (0.1−100 μM). […] After a 3 min preincubation at 37 °C, the reactions were initiated by adding NADPH and incubated for 20 min at 37 °C with shaking in a water bath. After incubation, the reaction was stopped by placing the tubes on ice and adding 100 μL of ice-cold acetonitrile containing internal standards (0.5 μg/mL [^13C,^15N]-acetaminophen for acetaminophen and N-desethylamodiaquine, 0.5 μg/mL [^2H5]-7-hydroxycoumarin for 7-hydroxycoumarin, 2.0 μg/mL [^13C6]-4-hydoxydiclofenac for 4-hydoxydiclofenac, 0.5 μg/mL [^2H3]-4'-hydoxymephenytoin for 4-hydoxymephenytoin and 1'-hydroxymidazolam, and 0.5 μg/mL [^2H7]-1'-hydroxybufuralol for 1'-hydroxybufuralol). The incubation mixtures were then centrifuged at 10,000× g for 5 min. All incubations were performedin triplicate.
(§2) To evaluate the effect of preincubation on inhibitory potency, eupatilin and jaceosidin (0.1−100 μM) were preincubated for 30 min with NADPH, buffer, and microsomes before the addition of the CYP probe substrates. The reaction was started by addition of the cocktail of probe substrates.
(§3) All seven metabolites produced from the cocktail of CYP isoform-specific substrates were simultaneously determined by LC/MS/MS. The system consisted of a tandem quadrupole mass spectrometer (TSQ Quantum Access, ThermoFisher Scientific, CA, USA) coupled with a Nanospace SI-2 LC system. The separation was performed on an Atlantis dC18 column (5 μm, 2.1 mm i.d. × 100 mm, Waters, Waltham, MA, USA) using the gradient elution of a mixture of 5% methanol in 0.1% formic acid (mobile phase A) and 95% methanol in 0.1% formic acid (mobile phase B) at a flow rate of 0.25 mL/min: 10% mobile phase B for 1 min, 10% to 95% mobile phase B for 1 min, 95% mobile phase B for 5 min. The column and autosampler temperatures were 50 °C and 4 °C, respectively. After 1.5 min, the LC eluant was diverted from waste to the mass spectrometer that was fitted with an electrospray ionization (ESI) source and operated in the positive ion mode. The ESI source settings for the ionization of the metabolites were as follows: electrospray voltage, 5.0 kV; vaporizer temperature, 420 °C; capillary temperature 360 °C; sheath gas pressure, 35 psi; auxiliary gas pressure, 10 psi. Quantification was performed by selected reaction monitoring (SRM) of the [M+H]^+ ion and the related product ion for each metabolite. The analytical data were processed using Xcalibur® software (ThermoFisher Scientific).
(§4) The IC50 values (concentration of inhibitor causing 50% inhibition of the original enzyme activity) were calculated using WinNonlin software, a non-linear regression analysis program (Pharsight, Mountain View, CA, USA). The apparent kinetic parameters for inhibitory potential (Ki values) were estimated from the fitted curves using Enzyme Kinetics Ver. 1.3 program (Systat Software Inc., San Jose, CA, USA).

[2] = target: T2, CYP1A2 (Homo sapiens, UniProt P05177); experiment: Kinetic analysis (Ki, inhibition type) in human liver microsomes: phenacetin O-deethylation; settings: pooled human liver microsomes
T2 construct: pooled human liver microsomes (0.25 mg/mL); tissue BD Gentest Co. H161; host or cells: pooled human liver microsomes
T2 sequence (P05177 1-516): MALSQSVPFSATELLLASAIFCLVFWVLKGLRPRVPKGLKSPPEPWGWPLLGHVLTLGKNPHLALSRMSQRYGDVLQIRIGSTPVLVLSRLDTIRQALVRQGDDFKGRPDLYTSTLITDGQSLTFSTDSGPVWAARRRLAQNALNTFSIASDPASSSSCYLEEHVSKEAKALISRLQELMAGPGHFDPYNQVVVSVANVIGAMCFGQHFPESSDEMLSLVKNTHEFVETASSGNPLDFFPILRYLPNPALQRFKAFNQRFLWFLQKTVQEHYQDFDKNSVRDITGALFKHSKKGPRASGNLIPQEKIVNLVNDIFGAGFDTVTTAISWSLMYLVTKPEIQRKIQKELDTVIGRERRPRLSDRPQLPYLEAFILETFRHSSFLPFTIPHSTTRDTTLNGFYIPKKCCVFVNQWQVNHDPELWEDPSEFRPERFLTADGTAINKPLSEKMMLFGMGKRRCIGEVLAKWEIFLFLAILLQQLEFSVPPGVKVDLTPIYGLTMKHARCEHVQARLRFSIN
Method: (§5) The Ki values and inhibition types (competitive, noncompetitive, uncompetitive, or mixed) were determined for eupatilin and jaceosidin using Lineweaver plots, Dixon plots, and secondary reciprocal plots.
(§6) The reactions were initiated by addition of NADPH at 37 °C and stopped after 15 min by placing the incubation tubes on ice and adding 100 μL of ice-cold methanol containing an internal standard. The incubation mixtures were centrifuged at 10,000' g for 5 min, and aliquots (5 μL) of the supernatants were analyzed by liquid chromatography/tandem mass spectrometry (LC/MS/MS).
as §3, §4

[3] = target: T3, CYP2C9 (Homo sapiens, UniProt P11712); experiment: Cocktail probe assay in pooled human liver microsomes: diclofenac 4-hydroxylation (IC50); settings: 10 μM diclofenac
T3 construct: pooled human liver microsomes (0.25 mg/mL); tissue BD Gentest Co. H161; host or cells: pooled human liver microsomes
Method: as §1, §2
(§7) All seven metabolites produced from the cocktail of CYP isoform-specific substrates were simultaneously determined by LC/MS/MS. The system consisted of a tandem quadrupole mass spectrometer (TSQ Quantum Access, ThermoFisher Scientific, CA, USA) coupled with a Nanospace SI-2 LC system. The separation was performed on an Atlantis dC18 column (5 μm, 2.1 mm i.d. × 100 mm, Waters, Waltham, MA, USA) using the gradient elution of a mixture of 5% methanol in 0.1% formic acid (mobile phase A) and 95% methanol in 0.1% formic acid (mobile phase B) at a flow rate of 0.25 mL/min: 10% mobile phase B for 1 min, 10% to 95% mobile phase B for 1 min, 95% mobile phase B for 5 min. […] Quantification was performed by selected reaction monitoring (SRM) of the [M+H]^+ ion and the related product ion for each metabolite. […]

[4] = target: T4, CYP2C8 (Homo sapiens, UniProt P10632); experiment: Kinetic analysis (Ki, inhibition type) in human liver microsomes: amodiaquine N-deethylation; settings: pooled human liver microsomes
T4 construct: pooled human liver microsomes (0.25 mg/mL); tissue BD Gentest Co. H161; host or cells: pooled human liver microsomes
T4 sequence (P10632 1-490): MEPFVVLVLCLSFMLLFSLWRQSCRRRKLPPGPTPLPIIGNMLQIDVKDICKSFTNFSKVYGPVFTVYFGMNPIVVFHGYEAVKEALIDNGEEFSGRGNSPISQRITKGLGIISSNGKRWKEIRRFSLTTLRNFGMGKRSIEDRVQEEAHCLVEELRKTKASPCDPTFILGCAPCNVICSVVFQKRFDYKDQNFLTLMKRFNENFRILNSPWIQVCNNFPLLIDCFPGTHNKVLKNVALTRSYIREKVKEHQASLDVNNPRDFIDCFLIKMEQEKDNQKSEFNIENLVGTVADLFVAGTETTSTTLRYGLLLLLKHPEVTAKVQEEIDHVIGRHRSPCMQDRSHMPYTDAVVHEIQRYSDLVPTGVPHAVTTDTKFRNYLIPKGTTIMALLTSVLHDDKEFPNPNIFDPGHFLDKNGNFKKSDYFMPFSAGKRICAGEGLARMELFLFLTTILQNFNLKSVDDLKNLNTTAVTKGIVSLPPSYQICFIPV
Method: as §5, §6, §3, §4

[5] = target: T3, CYP2C9; experiment: Kinetic analysis (Ki, inhibition type) in human liver microsomes: diclofenac 4-hydroxylation; settings: pooled human liver microsomes; for Inhibition type, diclofenac 4-hydroxylation (CYP2C9): Lineweaver, Dixon and secondary reciprocal plots
Method: as §5, §6, §3, §4

[6] = target: T5, CYP2D6 (Homo sapiens, UniProt P10635); experiment: Cocktail probe assay in pooled human liver microsomes: bufuralol 1'-hydroxylation (IC50); settings: 5.0 μM bufuralol
T5 construct: pooled human liver microsomes (0.25 mg/mL); tissue BD Gentest Co. H161; host or cells: pooled human liver microsomes
Method: as §1, §2, §7

[7] = test system: CYP3A; experiment: Cocktail probe assay in pooled human liver microsomes: midazolam 1'-hydroxylation (IC50); settings: for IC50, midazolam 1'-hydroxylation (CYP3A): pooled human liver microsomes, 2.5 μM midazolam
Method: as §1, §2, §3, §4

[8] = target: T4, CYP2C8; experiment: Cocktail probe assay in pooled human liver microsomes: amodiaquine N-deethylation (IC50); settings: 2.0 μM amodiaquine, no preincubation
Method: as §1, with “After incubation, the reaction was stopped by placing the tubes on ice and adding 100 μL of ice-cold acetonitrile containing internal standards (0.5 μg/mL [^13C,^15N]-acetaminophen for acetaminophen and N-desethylamodiaquine, 0.5 μg/mL [^2H5]-7-hydroxycoumarin for 7-hydroxycoumarin, 2.0 μg/mL [^13C6]-4-hydoxydiclofenac for 4-hydoxydiclofenac, 0.5 μg/mL [^2H3]-4'-hydoxymephenytoin for 4-hydoxymephenytoin and 1'-hydroxymidazolam, and 0.5 μg/mL [^2H7]-1'-hydroxybufuralol for 1'-hydroxybufuralol). The incubation mixtures were then centrifuged at 10,000× g for 5 min. All incubations were performedin triplicate.” left out
All seven metabolites produced from the cocktail of CYP isoform-specific substrates were simultaneously determined by LC/MS/MS. […] Quantification was performed by selected reaction monitoring (SRM) of the [M+H]^+ ion and the related product ion for each metabolite. […]

[9] = target: T5, CYP2D6; experiment: Kinetic analysis (Ki, inhibition type) in human liver microsomes: bufuralol 1'-hydroxylation; settings: pooled human liver microsomes
Method: as §5, §6, §3, §4

[10] = target: T6, CYP2C19 (Homo sapiens, UniProt P33261); experiment: Cocktail probe assay in pooled human liver microsomes: [S]-mephenytoin 4'-hydroxylation (IC50); settings: 50 μM [S]-mephenytoin
T6 construct: pooled human liver microsomes (0.25 mg/mL); tissue BD Gentest Co. H161; host or cells: pooled human liver microsomes
Method: as §1, §2, §7

[11] = target: T6, CYP2C19; experiment: Kinetic analysis (Ki, inhibition type) in human liver microsomes: [S]-mephenytoin 4'-hydroxylation; settings: pooled human liver microsomes; for Inhibition type, S-mephenytoin 4'-hydroxylation (CYP2C19): Lineweaver, Dixon and secondary reciprocal plots
Method: as §5, §6, §3, §4

[12] = target: T2, CYP1A2; experiment: Cocktail probe assay in pooled human liver microsomes: phenacetin O-deethylation (IC50); settings: 50 μM phenacetin
Method: as §1, §2, §7

[13] = with 30 min preincubation in presence of NADPH
[14] = Lineweaver, Dixon and secondary reciprocal plots

T3 sequence (P11712 whole entry): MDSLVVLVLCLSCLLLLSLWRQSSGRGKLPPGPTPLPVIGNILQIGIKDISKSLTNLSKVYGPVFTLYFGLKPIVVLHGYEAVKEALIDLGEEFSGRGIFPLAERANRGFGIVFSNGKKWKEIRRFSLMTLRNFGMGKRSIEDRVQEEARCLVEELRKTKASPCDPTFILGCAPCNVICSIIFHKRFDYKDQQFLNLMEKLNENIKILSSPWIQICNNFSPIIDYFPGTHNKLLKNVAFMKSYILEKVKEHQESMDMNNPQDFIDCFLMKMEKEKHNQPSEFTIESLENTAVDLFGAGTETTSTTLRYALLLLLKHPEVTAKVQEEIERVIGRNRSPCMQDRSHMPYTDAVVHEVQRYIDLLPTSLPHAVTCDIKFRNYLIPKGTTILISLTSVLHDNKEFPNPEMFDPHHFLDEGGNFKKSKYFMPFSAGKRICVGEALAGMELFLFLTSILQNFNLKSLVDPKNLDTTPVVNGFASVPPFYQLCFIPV
T5 sequence (P10635 whole entry): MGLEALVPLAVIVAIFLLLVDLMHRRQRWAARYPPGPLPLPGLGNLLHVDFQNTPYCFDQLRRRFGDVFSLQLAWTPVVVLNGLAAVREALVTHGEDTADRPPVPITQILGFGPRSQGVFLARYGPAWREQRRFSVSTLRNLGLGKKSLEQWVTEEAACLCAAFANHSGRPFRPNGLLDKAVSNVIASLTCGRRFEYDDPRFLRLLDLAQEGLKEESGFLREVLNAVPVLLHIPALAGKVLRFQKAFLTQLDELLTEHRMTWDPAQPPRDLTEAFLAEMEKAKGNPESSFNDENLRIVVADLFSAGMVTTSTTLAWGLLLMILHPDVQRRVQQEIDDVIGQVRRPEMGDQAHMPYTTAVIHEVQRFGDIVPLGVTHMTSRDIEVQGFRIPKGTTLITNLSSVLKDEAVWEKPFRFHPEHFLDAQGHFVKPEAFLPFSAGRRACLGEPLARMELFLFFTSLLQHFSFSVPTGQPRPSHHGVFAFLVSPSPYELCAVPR
T6 sequence (P33261 whole entry): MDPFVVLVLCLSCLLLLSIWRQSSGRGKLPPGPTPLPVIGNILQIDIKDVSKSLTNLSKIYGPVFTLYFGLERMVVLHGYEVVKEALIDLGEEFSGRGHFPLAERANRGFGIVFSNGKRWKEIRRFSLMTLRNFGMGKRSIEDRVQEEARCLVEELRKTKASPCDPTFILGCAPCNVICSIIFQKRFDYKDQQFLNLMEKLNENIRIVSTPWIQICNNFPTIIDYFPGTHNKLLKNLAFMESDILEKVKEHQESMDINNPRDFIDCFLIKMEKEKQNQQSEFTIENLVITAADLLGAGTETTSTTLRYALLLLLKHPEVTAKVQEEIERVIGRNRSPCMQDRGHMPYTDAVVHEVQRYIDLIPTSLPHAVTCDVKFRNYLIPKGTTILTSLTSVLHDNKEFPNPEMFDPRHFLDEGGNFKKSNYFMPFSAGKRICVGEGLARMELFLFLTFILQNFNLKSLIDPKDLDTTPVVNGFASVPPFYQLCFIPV

Inhibition of CYP2A6-catalyzed coumarin 7-hydroxylation at the highest concentration tested ([1]; 100 μM, human liver microsomes): negligible inhibition | IC50, coumarin 7-hydroxylation (CYP2A6) ([1]; no preincubation): No inhibition | IC50, coumarin 7-hydroxylation (CYP2A6) [1, 13]: No inhibition | Ki ([2]; 10-100 μM phenacetin): 3.8 ± 0.23 µM | Inhibition type, phenacetin O-deethylation (CYP1A2) [2, 14]: competitive | IC50 ([3]; no preincubation): 10.2 ± 1 µM | IC50 [3, 13]: 8.6 ± 0.91 µM | Ki ([4]; 0.5-5 μM amodiaquine): 109 ± 7.3 µM | Inhibition type, amodiaquine N-deethylation (CYP2C8) [4, 14]: competitive | Ki ([5]; 1-50 μM diclofenac): 6.4 ± 0.25 µM | Inhibition type, diclofenac 4-hydroxylation (CYP2C9) [5]: competitive | Inhibition type, diclofenac 4-hydroxylation (CYP2C9) ([5]; listed as Jaceosidin): competitive | IC50 ([6]; no preincubation): 79.1 ± 1.8 µM | IC50 [6, 13]: 82.3 ± 2.4 µM | Inhibition of CYP3A4-catalyzed midazolam 1'-hydroxylation at the highest concentration tested ([7]; 100 μM, human liver microsomes): negligible inhibition | IC50, midazolam 1'-hydroxylation (CYP3A) ([7]; no preincubation): No inhibition | IC50, midazolam 1'-hydroxylation (CYP3A) [7, 13]: No inhibition | IC50 [8]: > 100 µM | Ki ([9]; 0.5-5 μM bufuralol): 57.8 ± 3.6 µM | Inhibition type, bufuralol 1'-hydroxylation (CYP2D6) [9, 14]: competitive | IC50 ([10]; no preincubation): 64.9 ± 4.8 µM | IC50 [10, 13]: 69.8 ± 3.8 µM | Ki ([11]; 10-100 μM [S]-mephenytoin): 45.1 ± 4.2 µM | Inhibition type, S-mephenytoin 4'-hydroxylation (CYP2C19) [11]: mixed | Inhibition type, S-mephenytoin 4'-hydroxylation (CYP2C19) ([11]; listed as Jaceosidin): mixed type | IC50 ([12]; no preincubation): 5.3 ± 0.81 µM | IC50 [12, 13]: 6 ± 0.45 µM
SMILES: COc1cc(-c2cc(=O)c3c(O)c(OC)c(O)cc3o2)ccc1O [jaceosidin, 5,7-dihydroxy-2-(4-hydroxy-3-methoxyphenyl)-6-methoxychromen-4-one]
